Data reported in patent US12673961B2 (Agios Pharmaceuticals, Inc., priority 2022, dated 2026).

Each compound was assayed against T1, human PAH with the R408W mutation (Homo sapiens, UniProt P00439, R408W) (assay: Cell Based Phenylalanine Flux Assay). Conditions: A375 cells expressing human R408W PAH; 24 hrs with compound, then sepiapterin and 13C9,15N-Phenylalanine for 4 hours; 13C-Tyrosine by LC-MS; average where tested multiple times; read-out: AC50.
T1 construct: expressed in transfected cells
T1 sequence (P00439 1-452 R408W): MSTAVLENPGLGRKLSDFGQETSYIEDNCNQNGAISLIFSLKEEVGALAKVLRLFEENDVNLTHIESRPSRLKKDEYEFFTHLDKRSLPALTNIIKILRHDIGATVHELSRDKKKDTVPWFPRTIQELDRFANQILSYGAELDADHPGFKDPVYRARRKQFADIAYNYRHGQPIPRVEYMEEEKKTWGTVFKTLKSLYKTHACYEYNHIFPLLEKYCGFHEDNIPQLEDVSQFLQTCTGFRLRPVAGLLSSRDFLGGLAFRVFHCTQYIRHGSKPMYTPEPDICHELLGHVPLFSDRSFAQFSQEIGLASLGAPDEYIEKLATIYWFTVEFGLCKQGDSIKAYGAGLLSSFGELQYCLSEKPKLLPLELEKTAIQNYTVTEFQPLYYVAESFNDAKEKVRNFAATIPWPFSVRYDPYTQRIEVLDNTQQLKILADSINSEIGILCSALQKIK
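Further: Ten-point dose curve from 2-fold serial dilutions, run in duplicate at 0.5% DMSO final, tracer step used 20 µM sepiapterin and 800 µM labeled phenylalanine.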

| SMILES | AC50 [nM] |
| --- | --- |
| Cc1cccn2nc([C@H]3c4nc[nH]c4CCN3c3nnc(-c4cccnc4F)o3)cc12 [Example 2265, (R)-2-(2-fluoropyridin-3-yl)-5-(4-(4-methylpyrazolo[1,5-a]pyridin-2-yl)-1,4,6,7-tetrahydro-5H-imidazo[4,5-c]pyridin-5-yl)-1,3,4-oxadiazole] | > 5000 |
| FC(F)Oc1cccn2nc([C@@H]3c4nc[nH]c4CCN3c3ccc(C(F)(F)F)cn3)cc12 [Example 2272, (S)-4-(4-(difluoromethoxy)pyrazolo[1,5-a]pyridin-2-yl)-5-(5-(trifluoromethyl)pyridin-2-yl)-4,5,6,7-tetrahydro-1H-imidazo[4,5-c]pyridine] | < 500 |
| Cc1cccnc1-c1nnc(N2CCc3[nH]cnc3[C@H]2c2cc3c(C(F)F)cccn3n2)o1 [Example 2279, (S)-2-(4-(4-(difluoromethyl)pyrazolo[1,5-a]pyridin-2-yl)-1,4,6,7-tetrahydro-5H-imidazo [4,5-c]pyridin-5-yl)-5-(3-methylpyridin-2-yl)-1,3,4-oxadiazole] | < 500 |
| Cc1cccnc1-c1nnc(N2CCc3[nH]cnc3[C@@H]2c2cc3c(F)cccn3n2)o1 [Example 2281, (R)-2-(4-(4-fluoropyrazolo [1,5-a]pyridin-2-yl)-1,4,6,7-tetrahydro-5H-imidazo [4,5-c]pyridin-5-yl)-5-(3-methylpyridin-2-yl)-1,3,4-oxadiazole] | > 5000 |
| Cc1cccnc1-c1nnc(N2CCc3[nH]cnc3[C@H]2c2cc3c(Cl)cccn3n2)o1 [Example 2287] | < 500 |
| Cc1cc(-c2nnc(C(=O)N3CCc4[nH]cnc4[C@H]3c3cc4c(F)cccn4n3)o2)n[nH]1 [Example 2295, (S)-(4-(4-fluoropyrazolo [1,5-a]pyridin-2-yl)-1,4,6,7-tetrahydro-5H-imidazo[4,5-c]pyridin-5-yl)(5-(5-methyl-1H-pyrazol-3-yl)-1,3,4-oxadiazol-2-yl)methanone] | 500 to 1000 |
| Cc1c[nH]nc1-c1nnc(C(=O)N2CCc3[nH]cnc3[C@H]2c2cc3c(F)cccn3n2)o1 [Example 2296, (S)-(4-(4-fluoropyrazolo [1,5-a]pyridin-2-yl)-1,4,6,7-tetrahydro-5H-imidazo[4,5-c]pyridin-5-yl)(5-(4-methyl-1H-pyrazol-3-yl)-1,3,4-oxadiazol-2-yl)methanone] | < 500 |
| Cc1c[nH]nc1-c1nnc(C(=O)N2CCc3[nH]cnc3[C@@H]2c2cc3c(F)cccn3n2)o1 [Example 2297, (R)-(4-(4-fluoropyrazolo [1,5-a]pyridin-2-yl)-1,4,6,7-tetrahydro-5H-imidazo[4,5-c]pyridin-5-yl)(5-(4-methyl-1H-pyrazol-3-yl)-1,3,4-oxadiazol-2-yl)methanone] | > 5000 |
| Cc1cccnc1-c1nnc(N2CCc3[nH]cnc3[C@@H]2c2cc3cccc(Cl)n3n2)o1 [Example 2306, (R)-2-(4-(7-chloropyrazolo [1,5-a]pyridin-2-yl)-1,4,6,7-tetrahydro-5H-imidazo [4,5-c]pyridin-5-yl)-5-(3-methylpyridin-2-yl)-1,3,4-oxadiazole] | > 5000 |
| Cc1cccnc1-c1nnc(N2CCc3[nH]cnc3[C@H]2c2cc3cccc(Cl)n3n2)o1 [Example 2307, (S)-2-(4-(7-chloropyrazolo [1,5-a]pyridin-2-yl)-1,4,6,7-tetrahydro-5H-imidazo [4,5-c]pyridin-5-yl)-5-(3-methylpyridin-2-yl)-1,3,4-oxadiazole] | < 500 |
| Cc1cccn2nc([C@H]3c4nc[nH]c4CCN3c3ccccc3)cc12 [Example 2310, (R)-4-(4-methylpyrazolo [1,5-a]pyridin-2-yl)-5-phenyl-4,5,6,7-tetrahydro-1H-imidazo[4,5-c]pyridine] | 1000 to 5000 |
| FC(F)Oc1cccn2nc([C@@H]3c4nc[nH]c4CCN3c3cnccn3)cc12 [Example 2319, (S)-4-(4-(difluoromethoxy)pyrazolo[1,5-a]pyridin-2-yl)-5-(pyrazin-2-yl)-4,5,6,7-tetrahydro-1H-imidazo[4,5-c]pyridine] | < 500 |
| CC(C)c1nnc(N2CCc3[nH]cnc3[C@H]2c2cc3c(C(F)F)cccn3n2)o1 [Example 2321, (S)-2-(4-(4-(difluoromethyl)pyrazolo[1,5-a]pyridin-2-yl)-1,4,6,7-tetrahydro-5H-imidazo [4,5-c]pyridin-5-yl)-5-isopropyl-1,3,4-oxadiazole] | < 500 |
| Cc1cccc2cc([C@H]3c4nc[nH]c4CCN3c3nnc(C(C)(F)F)o3)nn12 [Example 2328, (R)-2-(1,1-difluoroethyl)-5-(4-(7-methylpyrazolo[1,5-a]pyridin-2-yl)-1,4,6,7-tetrahydro-5H-imidazo[4,5-c]pyridin-5-yl)-1,3,4-oxadiazole] | > 5000 |
| Cc1ncccc1-c1nnc(N2CCc3[nH]cnc3[C@H]2c2cc3cccc(Cl)n3n2)o1 [Example 2330, (S)-2-(4-(7-chloropyrazolo [1,5-a]pyridin-2-yl)-1,4,6,7-tetrahydro-5H-imidazo [4,5-c]pyridin-5-yl)-5-(2-methylpyridin-3-yl)-1,3,4-oxadiazole] | 500 to 1000 |
| CC(C)c1cccn2nc([C@H]3c4nc[nH]c4CCN3c3nnc(-c4cccnc4F)o3)cc12 [Example 2334, (R)-2-(2-fluoropyridin-3-yl)-5-(4-(4-isopropylpyrazolo[1,5-a]pyridin-2-yl)-1,4,6,7-tetrahydro-5H-imidazo[4,5-c]pyridin-5-yl)-1,3,4-oxadiazole] | > 5000 |
| Cc1cccc(-c2nnc(N3CCc4[nH]cnc4[C@H]3c3cc4ccccn4n3)o2)n1 [Example 2342, (S)-2-(6-methylpyridin-2-yl)-5-(4-(pyrazolo[1,5-a]pyridin-2-yl)-1,4,6,7-tetrahydro-5H-imidazo[4,5-c]pyridin-5-yl)-1,3,4-oxadiazole] | 1000 to 5000 |
| Cc1cccc(-c2nnc(N3CCc4[nH]cnc4[C@@H]3c3cc4ccccn4n3)o2)n1 [Example 2343, (R)-2-(6-methylpyridin-2-yl)-5-(4-(pyrazolo[1,5-a]pyridin-2-yl)-1,4,6,7-tetrahydro-5H-imidazo[4,5-c]pyridin-5-yl)-1,3,4-oxadiazole] | > 5000 |
| Cc1cccc(-c2nnc(N3CCc4[nH]cnc4[C@@H]3c3cc4c(C)cccn4n3)o2)n1 [Example 2344] | > 5000 |
| Cc1cccc(-c2nnc(N3CCc4[nH]cnc4[C@@H]3c3cc4c(C(F)F)cccn4n3)o2)n1 [Example 2346, (R)-2-(4-(4-(difluoromethyl)pyrazolo[1,5-a]pyridin-2-yl)-1,4,6,7-tetrahydro-5H-imidazo[4,5-c]pyridin-5-yl)-5-(6-methylpyridin-2-yl)-1,3,4-oxadiazole] | > 5000 |
| Cc1cccnc1-c1nnc(N2CCc3[nH]cnc3[C@H]2c2cc3cccc(C(F)F)n3n2)o1 [Example 2352, (S)-2-(4-(7-(difluoromethyl)pyrazolo[1,5-a]pyridin-2-yl)-1,4,6,7-tetrahydro-5H-imidazo [4,5-c]pyridin-5-yl)-5-(3-methylpyridin-2-yl)-1,3,4-oxadiazole] | 500 to 1000 |
| Cc1cccn2nc([C@@H]3c4nc[nH]c4CCN3c3nnc(-c4cccc(F)n4)o3)cc12 [Example 2361, (S)-2-(6-fluoropyridin-2-yl)-5-(4-(4-methylpyrazolo[1,5-a]pyridin-2-yl)-1,4,6,7-tetrahydro-5H-imidazo[4,5-c]pyridin-5-yl)-1,3,4-oxadiazole] | < 500 |
| O=C(c1nnc(-c2ccc(F)cn2)o1)N1CCc2[nH]cnc2[C@H]1c1cc2ccccn2n1 [Example 2365, (S)-(5-(5-fluoropyridin-2-yl)-1,3,4-oxadiazol-2-yl)(4-(pyrazolo[1,5-a]pyridin-2-yl)-6,7-dihydro-1H-imidazo[4,5-c]pyridin-5(4H)-yl)methanone] | 1000 to 5000 |
| O=C(c1cn[nH]c1C(F)F)N1CCc2[nH]cnc2[C@H]1c1cc2ccccn2n1 [Example 2366, (S)-(5-(difluoromethyl)-1H-pyrazol-4-yl)(4-(pyrazolo[1,5-a]pyridin-2-yl)-6,7-dihydro-1H-imidazo[4,5-c]pyridin-5(4H)-yl)methanone] | 1000 to 5000 |
| Cc1ccc2cc([C@H]3c4nc[nH]c4CCN3C(=O)c3nnc(-c4cnn(C)c4)o3)nn2c1 [Example 2381, (R)-(5-(1-methyl-1H-pyrazol-4-yl)-1,3,4-oxadiazol-2-yl)(4-(6-methylpyrazolo[1,5-a]pyridin-2-yl)-6,7-dihydro-1H-imidazo[4,5-c]pyridin-5(4H)-yl)methanone] | > 5000 |
| O=C(c1nnc(C2CC2)o1)N1CCc2[nH]cnc2[C@H]1c1cc2ccc(F)cn2n1 [Example 2404, (S)-(5-cyclopropyl-1,3,4-oxadiazol-2-yl)(4-(6-fluoropyrazolo[1,5-a]pyridin-2-yl)-6,7-dihydro-1H-imidazo[4,5-c]pyridin-5(4H)-yl)methanone] | 1000 to 5000 |
| Cn1cc(-c2nnc(C(=O)N3CCc4[nH]cnc4[C@H]3c3cc4ccc(C(F)(F)F)cn4n3)o2)cn1 [Example 2416, (S)-(5-(1-methyl-1H-pyrazol-4-yl)-1,3,4-oxadiazol-2-yl)(4-(6-(trifluoromethyl)pyrazolo[1,5-a]pyridin-2-yl)-6,7-dihydro-1H-imidazo [4,5-c]pyridin-5(4H)-yl)methanone] | 1000 to 5000 |
| O=C(c1nnc(-c2cnn(C(F)(F)F)c2)o1)N1CCc2[nH]cnc2[C@H]1c1cc2cccc(C(F)(F)F)n2n1 [Example 2428, (S)-(5-(1-(trifluoromethyl)-1H-pyrazol-4-yl)-1,3,4-oxadiazol-2-yl)(4-(7-(trifluoromethyl)pyrazolo[1,5-a]pyridin-2-yl)-6,7-dihydro-1H-imidazo[4,5-c]pyridin-5(4H)-yl)methanone] | 1000 to 5000 |
